Laboratory results taken from PubChem BioAssay AID742 (SRMLSC, 2007).
pEC50: −log10 of the molar value. Calls of active or inactive are those of the source. How the calls were made is not given here.

Legend:
[1] = system: human cells, Her2 expression AlphaScreen; CTG viability; test: Her2 expression suppression with viability readout – cell-based, AlphaScreen, CellTiter-Glo viability, dose response (AID 742); conditions: viability, CellTiter-Glo
[2] = as above; conditions: human cells, Her2 expression AlphaScreen; CTG viability; at 9.62 µM (top of the series)

Row | Compound | pEC50 [1] | Her2 inhibition [2]
1 | Nc1nc(-c2cccs2)c(NC(=O)c2ccccc2)s1 | < 5.02 | -8.18% (inactive)
2 | C=C(C)Cn1c(-c2ccc(OC)cc2)nc2ccccc21 | < 5.02 | -19.2% (inactive)
3 | C/C(=N\O)C(=O)C(CN1CCCCC1)CN1CCCCC1 | < 5.02 | 15.2% (inactive)
4 | CCSC1(SCC)N=C(N)C2(C#N)C(c3ccc(OC)c(OC)c3OC)C12C#N (centres undefined) | < 5.02 | 6.24% (inactive)
5 | CCN(CC)C(=O)c1csc(Nc2ccc(C)cc2)n1 | < 5.02 | -12.9% (inactive)
6 | OCCN1CCN(CCCN2c3ccccc3Sc3ccc(C(F)(F)F)cc32)CC1 | < 5.02 | 12.6% (inactive)
7 | CC(C)N(Cc1nc(-c2ccccc2)no1)C(=O)CN1C(=O)c2ccccc2C1=O | < 5.02 | -1.52% (inactive)
8 | C#CCOC(=O)c1ccccc1C(=O)OCC#C | < 5.02 | -22.6% (inactive)
9 | CCOC(=O)C1C(c2ccccc2Cl)NC(=O)N(C)C1(O)C(F)(F)F (centres undefined) | < 5.02 | -10.7% (inactive)
10 | CC(=O)Nc1ccc(NS(=O)(=O)c2cc(C)sc2C)cc1 | < 5.02 | 0.09% (inactive)
11 | CCCS(=O)(=O)N1CCC(C(=O)N2CCC(Cc3ccccc3)CC2)CC1 | < 5.02 | -12.4% (inactive)
12 | COC(=O)c1sccc1NC(=O)c1csc(C)c1 | < 5.02 | 29.8% (inactive)
13 | CCC(=O)OC1(C#CCOc2ccc(OC)cc2)CCN(C)CC1 | < 5.02 | -12.2% (inactive)
14 | COCc1cc(C)nc(Nc2ccc(C)c(C)c2)c1C#N | < 5.02 | 20.5% (inactive)
15 | COc1ccccc1-c1cc(C(F)(F)F)nc(S(=O)(=O)CCCC(=O)N2CCCCC2C)n1 (centres undefined) | < 5.02 | -11.6% (inactive)
16 | COc1ccc(-c2cc(N)n(S(=O)(=O)c3c(F)c(F)c(F)c(F)c3F)n2)cc1OC | < 5.02 | 48.8% (inactive)
17 | Cc1cc(-c2nnc3n2N=C(c2ccc(-c4ccccc4)cc2)CS3)n[nH]1 | < 5.02 | -21.4% (inactive)
18 | CC(C)(C)c1cc(C(c2cccnc2)N2CCN(CCO)CC2)cc(C(C)(C)C)c1O (centres undefined) | < 5.02 | 7.24% (inactive)
19 | CS(=O)(=O)c1ccc(Cl)c(NC(=O)COC(=O)CNC(=O)c2ccc(Br)o2)c1 | < 5.02 | 5.14% (inactive)

Row | Compound | pEC50 [1] | Her2 inhibition [2]
20 | CCOc1cc(C(=O)CSc2nnc(CNc3ccc(Cl)cc3)o2)ccc1NC(=O)CC | < 5.02 | -22.6% (inactive)
21 | CN1CCN(CCCN2c3ccccc3Sc3ccc(Cl)cc32)CC1 | < 5.02 | -5.38% (inactive)
22 | CCOC(=O)CCS(=O)(=O)c1nc(-c2ccccc2)cc(C(F)(F)F)n1 | < 5.02 | 27.6% (inactive)
23 | C=C(C)COc1ccc(-c2n[nH]c(C)c2-c2ccccc2)c(O)c1 | < 5.02 | -3.91% (inactive)
24 | CSc1ccc2c(c1)N(CCC1CCCCN1C)c1ccccc1S2 (centres undefined) | < 5.02 | -45.6% (inactive)
25 | Cn1c(Cl)cnc1C1CC(=O)c2cc(Cl)ccc2O1 (centres undefined) | < 5.02 | 15.6% (inactive)
26 | CC(=N\O)/C(CN(C)C)=N/O | < 5.02 | -15.9% (inactive)
27 | CCc1ccc(C2CC(=O)N3CN(c4ccccc4)CSC3=C2C#N)cc1 (centres undefined) | < 5.02 | 21.4% (inactive)
28 | N=c1c2c(-c3ccccc3)c(-c3ccccc3)n(Cc3ccco3)c2ncn1Cc1ccco1 | < 5.02 | -27.8% (inactive)
29 | CCN(CC)c1ccc2c(Cl)c(Br)c(=O)oc2c1 | < 5.02 | 3.42% (inactive)
30 | CCCCC(CC)Cn1c2nc3ccccc3nc2c2c(=N)oc(C)nc21 (centres undefined) | < 5.02 | -5.07% (inactive)
31 | C=CCn1c(SCc2nc3ccccc3c(=O)[nH]2)nnc1-c1cc2cc(Cl)ccc2o1 | < 5.02 | 5.79% (inactive)
32 | Nc1c(C(=O)Nc2ccccc2)sc2nc(-c3ccco3)ccc12 | < 5.02 | 18.3% (inactive)
33 | CS(=O)(=O)c1ncc(Cl)c(C(=O)Nc2ccc(N3CCOCC3)cc2)n1 | < 5.02 | 19.8% (inactive)
34 | CC(=NCC1CCCO1)c1c(O)n(-c2ccccc2)c(=O)[nH]c1=O (centres undefined) | < 5.02 | -6.53% (inactive)
35 | CC1CC(C)(C)Nc2ccc(OC(=O)c3ccco3)cc21 (centres undefined) | < 5.02 | -5.22% (inactive)
36 | Cc1ccccc1-c1nc(CN2CCC(C(=O)NCCC3=CCCCC3)CC2)c(C)o1 | < 5.02 | -53.7% (inactive)
37 | CCCCCn1c(CN2CCCCC2CC)nc2c1c(=O)n(C)c(=O)n2C (centres undefined) | < 5.02 | -28.1% (inactive)
38 | O=C(c1n[nH]c(=O)c2ccccc12)N1CCN(c2ccccc2)CC1 | < 5.02 | -18.2% (inactive)

Row | Compound | pEC50 [1] | Her2 inhibition [2]
39 | Clc1ccc(CSC2=NCCCN2)cc1Cl | < 5.02 | -30.5% (inactive)
40 | Cc1ccc(NC(=O)CNc2cccc(C)c2C)c(C)c1 | < 5.02 | -12.6% (inactive)
41 | COc1ccc(Cl)c(Cn2c(NCc3ccco3)nc3c2c(=O)n(C)c(=O)n3C)c1 | < 5.02 | 0.72% (inactive)
42 | CCN(CC)c1ccc(-c2nn3c(-c4n[nH]c5c4CCC5)nnc3s2)cc1 | < 5.02 | -1.69% (inactive)
43 | CCn1c(C)cc(=S)c2ccccc21 | < 5.02 | -25.6% (inactive)
44 | O=C1/C(=N/n2cnnc2)c2ccccc2N1Cc1ccccc1 | < 5.02 | -25% (inactive)
45 | COC(=O)c1[nH]c2ccc(Br)cc2c1NC(=O)C(C)N1CCN(C2CCCCC2)CC1 (centres undefined) | < 5.02 | -20.7% (inactive)
46 | CCOC(=O)C(C(=O)OCC)c1cc(Br)c2noc3c2c1C(=O)c1ccccc1-3 | < 5.02 | 18.8% (inactive)
47 | Nc1nc2n(n1)C(c1cccs1)CC(c1ccc(Br)cc1)N2 (centres undefined) | < 5.02 | -10.7% (inactive)
48 | Clc1cccc(-c2nnc(-c3ccccc3)o2)c1 | > 7.62 | 34.8% (inactive)
49 | Cc1cc2nnc(SC(C)C#N)n2c2ccccc12 (centres undefined) | < 5.02 | -10.1% (inactive)
50 | CCOC(=O)c1c(C)[nH]c(C(=O)OC/C(O)=C(\C#N)c2nc3ccccc3[nH]2)c1C | < 5.02 | 16.6% (inactive)
51 | CCOc1ccc(CNc2ccc3c(c2)ncn3C)cc1 | < 5.02 | 8.61% (inactive)
52 | COC(=O)/C=C/S(=O)(=O)c1ccc(NC(C)=O)cc1 | < 5.02 | 20.9% (inactive)
53 | CCCOc1ccc(C(=O)CCN2CCCCC2)cc1 | < 5.02 | -16.8% (inactive)
54 | Cc1onc(-c2ccccc2)c1C(=O)n1nnc2ccccc21 | < 5.02 | -24.8% (inactive)
55 | CCNC(=O)c1nc[nH]c1C(=O)NCC | < 5.02 | 2.98% (inactive)
56 | O=C(Nc1ccc2c(c1)OCO2)c1cnn2cccnc12 | < 5.02 | -5.1% (inactive)
57 | Cc1ccc(S(=O)(=O)CCC(=O)c2ccc(O)cc2O)cc1 | < 5.02 | 1.34% (inactive)
